Measurements reported in ChEMBL document CHEMBL1146961, “Analogues of N-hydroxycinnamoylphenalkylamides as inhibitors of human melanocyte-tyrosinase” (Bioorg Med Chem Lett, 2006).

These molecules were tested on Rattus norvegicus (assay: Toxicity in rat at 2 g/kg, po). Details: in vivo, 2000 mg/kg; call rule not given here.
Type: organism-based
In the case of `O=C(CCc1ccc(O)cc1)NCCc1ccc(O)cc1`, the Activity is reported as “Not Active”. With `O=C(CCc1ccc(O)c(O)c1)NCCc1ccc(O)cc1` the Activity was “Not Active”. For `O=C(/C=C/c1ccc(O)c(O)c1)NCCc1ccc(O)cc1`, the Activity was “Not Active”.

These molecules were tested on Radical scavenging activity (assay: DPPH radical scavenging activity at 100 uM). Details: not given.
Type: functional
With `COc1cc(CNC(=O)/C=C/c2ccc(O)c(O)c2)ccc1O` the Activity was 60%. Work on `O=C(/C=C/c1ccc(O)c(O)c1)NCCc1ccc(O)c(O)c1` yielded an Activity of 60%. `O=C(/C=C/c1ccc(O)c(O)c1)NCCc1ccc(O)cc1` showed an Activity of 40%. For `COc1cc(/C=C/C(=O)NCCc2ccc(O)c(O)c2)ccc1O`, the Activity was 60%.
